These are literature values, as cited in patent US20230210830A1 (ALKEM LABORATORIES LIMITED, priority 2022, published 2023).

For orientation: pKa means the pH at which an ionisable group is half protonated. For orientation: bioavailability means the share of a dose that reaches the circulation, judged against a reference dose that is usually intravenous.

For data set [1] the following is noted: Strongest Basic.
For data set [2] the following is noted: humans.
In data set [3] the test system is aneurysmal subarachnoid hemorrhage (aSAH). Conditions: oral administration; patients after aSAH; Ehrlich et al. 2019.

SMILES strings stand for the structures.

For the compound `COCCOC(=O)C1=C(C)NC(C)=C(C(=O)OC(C)C)C1c1cccc([N+](=O)[O-])c1` (stereo not drawn) [nimodipine, isopropyl 2-methoxyethyl 1,4-dihydro-2,6-dimethyl-4-(m-nitrophenyl)-3,5-pyridinedicarboxylate], in data set [1], the pKa is 5.41. Further, where the note is “ethanol, polyethylene glycol 400, dimethyl sulfoxide (DMSO), and chloroform”, the “solubility in organic solvents” value is listed as “soluble”. Under “water”, the solubility in water entry was “insoluble”. The bioavailability in data set [2] was 12%. Also, the t1/2 in data set [2] (after oral administration) is 1.5 h. Besides, the clinical outcome in data set [3] is recorded as “improved clinical outcome”.
